In series [1] the test system is human gingival fibroblasts (HGFs). The series can be described thus: MTT cytocompatibility screening on HGFs, 24 h. The series is classed as cell-based. Particulars: for HGFs metabolic activity / cell viability (MTT): 10 µM, vs control (DMSO) and RSV; for HGFs cell viability (MTT): vs control and RSV.
The test system of the next series is eNOS mRNA in HUVECs. The series can be described thus: RT-qPCR of eNOS in HUVECs. The series is classed as cell-based, human. Particulars: RSV 10 µM, 48 and 72 h, time-dependent manner. How it is done: Total RNA was isolated using Trifast reagent (EuroClone) according to the manufacturer instructions from 3 × 10^5 cells/well treated with increasing concentrations of 1d and 1h for 48 h and 72 h. Complementary DNA (cDNA) was obtained using GoTaq® 2 Step RT-qPCR Kit (Promega, Madison, WI, USA) in accordance with the manufacturer’s instructions. RT-qPCR was carried out using SYBR Green (Promega) on the Quant Studio 7 Pro Real-Time PCR System (ThermoFisher, Waltham, MA, USA). The results were normalized to glyceraldehyde 3-phoshate dehydrogenase (GAPDH) for HUVECs and HGFs and to β-actin (βACT) for HOBs using the 2^−ΔΔCt method.
A general note: Quantitative PCR measures a nucleic acid by following its amplification.

For a further series, the system named is HGFs. Kind of series: Toluidine blue staining, morphology and confluence of HGFs. The series is classed as cell-based, human. As to conditions: 72 h; 1d and 1h 5 µM, RSV 10 µM. How it is done: The influence of 1d and 1h was evaluated on cells density and morphology by toluidine-blue staining. A total of 2 × 10^4 cells/well were cultured in 24-well plates and were incubated at 37 °C and 5% CO2 with tested compounds at 5 µM. After 48 and 72 h, adherent cells were fixed with 70% cold ethanol and stained with 1% toluidine blue and 1% borax (Sigma Aldrich, St. Louis, MO, USA). Cells were then observed by an inverted microscope connected with a camera at 40×, 100×, and 200× magnifications (Leica, Wild Heer-brugg, Wetzlar, Germany).

On to `O=S(=O)(Nc1ccc(/C=C/c2ccccc2)cc1)c1ccccc1` [1a], for which the “HGFs metabolic activity / cell viability (MTT)” value in series [1] is reported as “did not show any significant difference”. Moreover, the entries for the “HGFs cell viability (MTT)” value in series [1] (20 µM) and in series [1] (50 µM) were “slight increase in HGF viability” and “no statistically significant differences”, respectively.

Regarding `O=[N+]([O-])c1cccc(S(=O)(=O)Nc2ccc(/C=C/c3ccccc3)cc2)c1` [1b], the “HGFs metabolic activity / cell viability (MTT)” value in series [1] is reported as “significantly decreased the HGFs metabolic activity”. In addition, the “HGFs cell viability (MTT)” value in series [1] (50 µM) is “statistically reduce HGF viability”.

Turning to `Cc1ccc(S(=O)(=O)Nc2ccc(/C=C/c3ccccc3)cc2)cc1[N+](=O)[O-]` [1c], in series [1], the “HGFs metabolic activity / cell viability (MTT)” value is “did not show any significant difference”. The “HGFs cell viability (MTT)” value in series [1] (50 µM) is listed as “statistically reduce HGF viability”.

With `N#Cc1ccc(S(=O)(=O)Nc2ccc(/C=C/c3ccccc3)cc2)cc1` [1e], the “HGFs metabolic activity / cell viability (MTT)” value in series [1] is on record as “significantly decreased the HGFs metabolic activity”. Moreover, the “HGFs cell viability (MTT)” value was “statistically significant reduction in cell viability” in series [1] (20 µM) and “statistically reduce HGF viability” in series [1] (50 µM).

Regarding `COc1cc(OC)cc(S(=O)(=O)Nc2ccc(/C=C/c3ccccc3)cc2)c1` [1f], the “HGFs metabolic activity / cell viability (MTT)” value in series [1] is on record as “significantly decreased the HGFs metabolic activity”. Moreover, the “HGFs cell viability (MTT)” value in series [1] (50 µM) is “statistically reduce HGF viability”.

As to `CS(=O)(=O)Nc1ccc(/C=C/c2ccccc2)cc1` [1g], the “HGFs metabolic activity / cell viability (MTT)” value in series [1] was “significantly decreased the HGFs metabolic activity”. The results for the “HGFs cell viability (MTT)” value in series [1] (20 µM) and in series [1] (50 µM) were “statistically significant reduction in cell viability” and “statistically reduce HGF viability”, respectively.

With `O=S(=O)(Cc1ccccc1)Nc1ccc(/C=C/c2ccccc2)cc1` [1i], the “HGFs metabolic activity / cell viability (MTT)” value in series [1] was “did not show any significant difference”. The “HGFs cell viability (MTT)” value in series [1] (20 µM) is recorded as “statistically significant reduction in cell viability”; in series [1] (50 µM), “statistically reduce HGF viability”.

On to `Oc1ccc(/C=C/c2cc(O)cc(O)c2)cc1` [RSV, trans-3,5,4′-trihydroxystilbene, reference compound], for which, in the series with eNOS mRNA in HUVECs, the “eNOS mRNA expression” value is reported as “induced eNOS mRNA expression”. The HGFs morphology result with HGFs is “appeared as irregular triangles, polygons, and other shapes”.

The values above are taken from paper PMC9963438, “Emerging Effects of Resveratrol Derivatives in Cells Involved in Oral Wound Healing: A Preliminary Study” (International Journal of Molecular Sciences, 2023).
